Five molecules from patent US10228381B2, “Additive channels” (Emulate Inc., priority 2016, dated 2019) can be followed below.

The test system of test [1] is platelets in human whole blood on HUVEC endothelium. Kind of test: Vessel-On-Chip blood perfusion, platelet coverage by fluorescence imaging. It counts as cell-based. To be noted: for areas of platelet coverage (platelet aggregation on the endothelium): endothelial pre-treatment TNF-α 50 ng/ml 6 hours, or sCollagen 10 μg/ml in blood; for platelet aggregate formation compared to untreated blood: hu5C8 240 μg/mL, sCD40L 10 ng/ml, 4 donors, 60 μl/minute. The method, then:
Platelets: Platelets were labeled with human CD41-PE antibody (10 μL/ml, Invitrogen) directly added to the blood and incubated at room temperature for 5 minutes.
(§1) Adding Blood to a Vessel-On-Chip And Flow Conditions: A medical grade plastic reservoir was mounted on the chip, then 800 μl of the blood sample was pipetted into the reservoir. The chip was perfused with the blood by withdrawing it at a rate of 60 μl/minute using a syringe pump. The citrated blood was re-calcified 2 minutes after the beginning of each experiment by adding 100 μl/ml of a solution containing 100 mM calcium chloride and 75 mM magnesium chloride to the blood to permit calcium- and magnesium -dependent platelet function and coagulation.
(§2) Fluorescence Image Analysis: Chips perfused with blood samples were immediately imaged via fluorescence microscopy (Olympus IX83, 10× objective UPLFLN10X2 , Orca-Flash4.0 CMOS Camera). Each chamber was inspected along its entire length and 5 images (about 0.25 cm) were captured from the central area of the chamber. Image processing and quantification was performed with an automatic macro compiled in ImageJ and numerical values corresponding to platelet coverage or fibrin florescence were collected and statistically analyzed in Graphpad Prism V7.
Platelet Coverage: A percentage of signal coverage (or Platelet coverage) was computed from the binary image as the ratio of bright pixels to the total number of pixels in the image. Image processing and quantification was performed with an automatic macro compiled in ImageJ in order to ensure unbiased signal measurements. Numerical values corresponding to platelet coverage or fibrin fluorescence (signal intensity) were collected and statistically analyzed in Graphpad Prism V7.

Test [2] has as its system fibrin deposition on HUVEC endothelium. Kind of test: Vessel-On-Chip blood perfusion, fibrin deposition by fluorescence imaging. It counts as cell-based, human. To be noted: for fibrin signal intensity (fibrin deposition on the endothelium): endothelial pre-treatment TNF-α 50 ng/ml 6 hours, or sCollagen 10 μg/ml in blood; for fibrin deposition on the endothelium compared to untreated blood: hu5C8 240 μg/mL, sCD40L 10 ng/ml, 4 donors, 60 μl/minute. As to the method:
as §1
Visualizing Fibrin Deposition: When analyzing the formation of fibrin, 10 μg/ml of fluorescently labeled fibrinogen (Alexa 488, Invitrogen) was also added to the blood. While fluorescent fibrinogen was barely detected as a diffused fluorescence, fibrin deposition on inflamed cells and sparse clots was easily distinguished since fibrin formed filamentous structures produce a signal intensity that is clearly observed above a background threshold.
as §2

Test [3] relates to human whole blood on HUVEC endothelium. In words: Vessel-On-Chip thrombosis, all endpoints together (platelet coverage, fibrin deposition, TAT). It counts as cell-based. The settings on record: adding Eptifibatide; n=4 donors.
For test [4], the system named is thrombin anti-thrombin complex (TAT). In words: Thrombin-Anti Thrombin (TAT) ELISA in chip effluent. It counts as cell-based, human. To be noted: FIG. 22B; plasma from blood flowing out of the chip. The method, then:
Thrombin-Anti Thrombin (TAT) Measurement via ELISA: Thrombin Anti-Thrombin (TAT) levels were analyzed in plasma from blood flowing out of the chip device by removing a sample from the outflow port. Thus TAT levels were evaluated in sample effluents collected from the outflow port of the chip using the Human TAT ELISA Kit (Siemens Healthineers) according to the user manual.
Background: ELISA stands for enzyme-linked immunosorbent assay.

Test [5] concerns blood clots on endothelium. In words: Imaging of blood clots formed on-chip (SEM, micrographs, 3D movie). To be noted: after blood perfusion. It counts as cell-based, human. The method, then:
Scanning Electron Microscopy Sample Pre-treatment and Imaging: Immediately after fluorescence imaging, the chips were fixed in 2.5% glutaraldehyde in 100 mM sodium cacodylate buffer for 2 hours at room temperature. Then, the samples were washed and post fixed in 1% osmium tetroxide for 1 hour at room temperature. After the postfixation, the samples were dehydrated in series dilutions of ethanol and finally completely dried in a Critical point dryer (Tousimus Autosamsri-815). After mounting, the samples were gold sputtered using a Sputter coating system (Hummer 6.2) and imaged by SEM (Jeol 5600LV).

The mark [6] stands for this setting: Eptifibatide 2 ug/ml, endothelium inflamed with TNF-α, n=4.
Setting [7] is: Eptifibatide 2 ug/ml, following treatment with sCollagen, n=4.

Entries after “also recorded” stand apart in the source; their conditions may differ. Positions of bridges follow the written chain, without caps; N, C: chain ends. Non-standard residues stand in square brackets, D forms with d. Residues, ends and D or L forms follow the SMILES beside them. hArg = N=C(N)NCCCC[C@H](N)C(=O)O; Mpa = O=C(O)CCS

Consider `N=C(N)NCCCC[C@@H]1NC(=O)CCSSC[C@@H](C(N)=O)NC(=O)[C@@H]2CCCN2C(=O)[C@H](Cc2c[nH]c3ccccc23)NC(=O)[C@H](CC(=O)O)NC(=O)CNC1=O` [Eptifibatide] ([Mpa][hArg]GDWPC-NH2; disulfide 1-7), for which, in test [1] (setting [6]), the platelet aggregation entry was “significantly inhibited”. Also, in test [1] (setting [7]), the “inhibitory effect on platelet aggregation” value was “comparatively modest”. The “platelet adhesion (image analysis of multiple experiments)” value in test [1] (Eptifibatide 2 ug/ml, n=4) is given as “completely inhibited”. In addition, the fibrin clot formation result in test [2] (setting [6]) is reported as “significantly inhibited”. Further, in test [2] (setting [7]), the “inhibitory effect on fibrin clot formation” value was “comparatively modest”. Moreover, the “fibrin signal (image analysis of multiple experiments)” value in test [2] (Eptifibatide 2 ug/ml, samples treated with TNF-α) was “significant amount of fibrin signal was still detectable”. For the same molecule, the “pro-thrombotic effects (platelet coverage, fibrin deposition) of TNF-α and sCollagen / thrombotic events” value in test [3] is given as “suppressed; also recorded: inhibited”.
For the molecule TNF-α, the “areas of platelet coverage (platelet aggregation on the endothelium)” value in test [1] is reported as “increased”. Moreover, the “fibrin signal intensity (fibrin deposition on the endothelium)” value in test [2] is “increased”. For the same molecule, the “levels of TAT in outflow samples” value in test [4] is recorded as “significantly increased; also recorded: elevated levels”. Besides, in test [5], the “structure of blood clots formed on-chip” value was “compact clots composed of red blood cells and platelets, surrounded by fibrin; also recorded: high number of larger aggregates containing a platelet rich core decorated with fibrin”.
For the molecule “sCollagen: soluble collagen (Soluble Calf Skin, Type I), a standard platelet activator”, in test [1], the “areas of platelet coverage (platelet aggregation on the endothelium)” value is on record as “increased”. Moreover, the “fibrin signal intensity (fibrin deposition on the endothelium)” value in test [2] is “increased”. Besides, the “levels of TAT in outflow samples” value in test [4] was “minimally increased; also recorded: elevated levels”. Moreover, the “structure of blood clots formed on-chip” value in test [5] is “meshwork of complex fibrin-rich clots that incorporated red blood cells and platelets; also recorded: high number of larger aggregates containing a platelet rich core decorated with fibrin”.

B1: sCD40L: soluble CD40 ligand; recombinant human sCD40 Ligand (protein, UniProt P29965 113-261, looked up)
CD40 ligand, soluble form: MQKGDQNPQIAAHVISEASSKTTSVLQWAEKGYYTMSNNLVTLENGKQLTVKRQGLYYIYAQVTFCSNREASSQAPFIASLCLKSPGRFERILLRAANTHSSAKPCGQQSIHLGGVFELQPGASVFVNVTDPSQVSHGTGFTSFGLLKL
modifications: CD40 ligand, soluble form
With B1, the “platelet aggregate formation compared to untreated blood” value in test [1] is reported as “no significant treatment-related effects”. Moreover, the “platelet coverage, fold-increase over untreated control” value in test [1] (in some donors, sCD40L alone) was “about 2 fold”. In addition, in test [1] (sCD40L alone, up to 15 donors), the “mean increase in platelet coverage compared to controls” value was “not statistically significant”. In addition, the “fibrin deposition on the endothelium compared to untreated blood” value in test [2] is “no significant treatment-related effects”.

B2: hu5C8: humanized monoclonal IgG1 antibody against CD40L, alternatively named anti-sCD40L or anti-CD154 (antibody, chains of the INN, looked up, V domains shown)
VH: QVQLVQSGAEVVKPGASVKLSCKASGYIFTSYYMYWVKQAPGQGLEWIGEINPSNGDTNFNEKFKSKATLTVDKSASTAYMELSSLRSEDTAVYYCTRSDGRNDMDSWGQGTLVTVSS
VL: DIVLTQSPATLSVSPGERATISCRASQRVSSSTYSYMHWYQQKPGQPPKLLIKYASNLESGVPARFSGSGSGTDFTLTISSVEPEDFATYYCQHSWEIPPTFGGGTKLEIK
In the case of B2, the “platelet aggregate formation compared to untreated blood” value in test [1] was “no significant treatment-related effects”. In addition, the “fibrin deposition on the endothelium compared to untreated blood” value in test [2] is reported as “no significant treatment-related effects”.
